Common to all, as to format: cell-based, mouse
The subject of test [1] is bone marrow mesenchymal progenitors (CFU-Fs) in wild type BMSCs. Kind of test: CFU-F assay of wild type BMSCs in the presence or absence of DAPT. An excerpt:
FIG. 8B depicts AP staining after 8 days in osteogenic medium following CFU-F assays. FIG. 8C illustrates AP quantitative assay for high-density BMSCs cultures in osteogenic medium. FIG. 8D is phase-contrast pictures of high-density BMSCs cultured in adipogenic medium. Note the lipid droplets in wild type cells. […] The arrow denotes a typical “type I” CFU-F. Cell cultures. Bone marrow harvests and high-density cultures were done as described in the art. For CFU-F assays, single-cell suspension of nucleated bone marrow cells were seeded at 3×10^6 on T25 flasks and cultured in DMEM (Invitrogen) containing 20% lot-selected FBS (Hyclone) and 1-Thioglycerol (Sigma) for 11-14 days without change of medium. For CFU-F assays, colonies with more than 50 small, round or spindle-shaped cells in direct contact with each other were scored as “type I” CFU-Fs. Clusters with more than 100 cells including large cells with multiple processes were counted as “type II” CFU-Fs. Differentiation of BMSCs was induced by either osteogenic (50 μg/ml ascorbic acid, 50 mM β-glycerol-2-phosphate) or adipogenic (0.5 μMIBMX, 60 μM indomethacine, 0.5 μM hydrocortisone) DMEM containing 10% FBS (Atlas). […] NICD was detected by Western analyses using a specific antibody (Cell Signaling). […] It was also assessed whether Notch signaling could directly control bone marrow mesenchymal progenitors and their differentiation. […]

The subject of test [2] is "type II" CFU-Fs from wild type BMSCs. Kind of test: AP staining immediately following CFU-F assays. Particulars: assayed directly for AP activity without further culture in osteogenic conditions; DAPT-treated samples. As to the method:
FIG. 8G is representative of “type II” CFU-Fs stained for AP. FIG. 8H illustrates an AP quantitative assay for high-density wild type BMSCs cultures in osteogenic medium with or without DAPT. (*: p<0.05). Cell cultures. Bone marrow harvests and high-density cultures were done as described in the art. For CFU-F assays, single-cell suspension of nucleated bone marrow cells were seeded at 3×10^6 on T25 flasks and cultured in DMEM (Invitrogen) containing 20% lot-selected FBS (Hyclone) and 1-Thioglycerol (Sigma) for 11-14 days without change of medium. For CFU-F assays, colonies with more than 50 small, round or spindle-shaped cells in direct contact with each other were scored as “type I” CFU-Fs. Clusters with more than 100 cells including large cells with multiple processes were counted as “type II” CFU-Fs. Differentiation of BMSCs was induced by either osteogenic (50 μg/ml ascorbic acid, 50 mM β-glycerol-2-phosphate) or adipogenic (0.5 μMIBMX, 60 μM indomethacine, 0.5 μM hydrocortisone) DMEM containing 10% FBS (Atlas). Primary osteoblasts were isolated from long bones by incubating cleaned small bone chips to allow cells to migrate onto culture dishes. NICD was detected by Western analyses using a specific antibody (Cell Signaling). It was also assessed whether Notch signaling could directly control bone marrow mesenchymal progenitors and their differentiation. […]

For test [3], the system named is wild type BMSCs. Description: AP quantitative assay for high-density wild type BMSCs cultures in osteogenic medium. Particulars: wild type BMSCs at higher density under osteogenic conditions, with versus without DAPT; p<0.05. How it is done:
FIG. 8G is representative of “type II” CFU-Fs stained for AP. FIG. 8H illustrates an AP quantitative assay for high-density wild type BMSCs cultures in osteogenic medium with or without DAPT. (*: p<0.05).
Cell cultures. Bone marrow harvests and high-density cultures were done as described in the art. For CFU-F assays, single-cell suspension of nucleated bone marrow cells were seeded at 3×10^6 on T25 flasks and cultured in DMEM (Invitrogen) containing 20% lot-selected FBS (Hyclone) and 1-Thioglycerol (Sigma) for 11-14 days without change of medium. For CFU-F assays, colonies with more than 50 small, round or spindle-shaped cells in direct contact with each other were scored as “type I” CFU-Fs. Clusters with more than 100 cells including large cells with multiple processes were counted as “type II” CFU-Fs. Differentiation of BMSCs was induced by either osteogenic (50 μg/ml ascorbic acid, 50 mM β-glycerol-2-phosphate) or adipogenic (0.5 μMIBMX, 60 μM indomethacine, 0.5 μM hydrocortisone) DMEM containing 10% FBS (Atlas). Primary osteoblasts were isolated from long bones by incubating cleaned small bone chips to allow cells to migrate onto culture dishes. NICD was detected by Western analyses using a specific antibody (Cell Signaling).
It was also assessed whether Notch signaling could directly control bone marrow mesenchymal progenitors and their differentiation. […]

For `C[C@H](NC(=O)Cc1cc(F)cc(F)c1)C(=O)N[C@H](C(=O)OC(C)(C)C)c1ccccc1` [DAPT, N—[N-(3,5-Difluorophenacetyl)-L-alanyl]-S-phenylglycine t-butyl ester], the “number of "type II" CFU-Fs” value in test [1] (1 μM DAPT, number not altered versus untreated) is on record as ~20 per 106 marrow cells. In addition, the “effect on "type I" CFU-Fs” value in test [1] (low-density culture, 1 μM DAPT (FIG. 8 legend)) is on record as “completely eliminated”. Further, the “AP staining of "type II" CFU-Fs” value in test [2] is “nearly all “type II” CFU-Fs from the DAPT-treated samples stained strongly positive”. Besides, the AP expression entry in test [3] is reported as “significantly increased”.

The values above are taken from patent US8343923B2, “Use of notch signaling regulators for modulating osteogenesis” (Washington University, priority 2007, dated 2013).
